Counter-ions that a name gives are not always drawn.
What follows are compounds tested against recombinant human HPK1 (Homo sapiens (Human), UniProt Q92918) (assay: HPK1 kinase assay (ADP-Glo)). Details: 25 μM ATP, MBP substrate.
Type: biochemical
How it was run: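 Activity was read as ADP formed, detected by ADP-Glo luminescence after the reaction of 5 ng recombinant human HPK1 with MBP and ATP (stocks 0.5 μg/μl and 25 μM) for 40 min at 30 °C. Buffer was Tris pH 7.5 with MgCl2, BSA and DTT, with compound in 0.5% DMSO. IC50 came from inhibition curves.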

recombinant human HPK1, sequence (Q92918 whole entry): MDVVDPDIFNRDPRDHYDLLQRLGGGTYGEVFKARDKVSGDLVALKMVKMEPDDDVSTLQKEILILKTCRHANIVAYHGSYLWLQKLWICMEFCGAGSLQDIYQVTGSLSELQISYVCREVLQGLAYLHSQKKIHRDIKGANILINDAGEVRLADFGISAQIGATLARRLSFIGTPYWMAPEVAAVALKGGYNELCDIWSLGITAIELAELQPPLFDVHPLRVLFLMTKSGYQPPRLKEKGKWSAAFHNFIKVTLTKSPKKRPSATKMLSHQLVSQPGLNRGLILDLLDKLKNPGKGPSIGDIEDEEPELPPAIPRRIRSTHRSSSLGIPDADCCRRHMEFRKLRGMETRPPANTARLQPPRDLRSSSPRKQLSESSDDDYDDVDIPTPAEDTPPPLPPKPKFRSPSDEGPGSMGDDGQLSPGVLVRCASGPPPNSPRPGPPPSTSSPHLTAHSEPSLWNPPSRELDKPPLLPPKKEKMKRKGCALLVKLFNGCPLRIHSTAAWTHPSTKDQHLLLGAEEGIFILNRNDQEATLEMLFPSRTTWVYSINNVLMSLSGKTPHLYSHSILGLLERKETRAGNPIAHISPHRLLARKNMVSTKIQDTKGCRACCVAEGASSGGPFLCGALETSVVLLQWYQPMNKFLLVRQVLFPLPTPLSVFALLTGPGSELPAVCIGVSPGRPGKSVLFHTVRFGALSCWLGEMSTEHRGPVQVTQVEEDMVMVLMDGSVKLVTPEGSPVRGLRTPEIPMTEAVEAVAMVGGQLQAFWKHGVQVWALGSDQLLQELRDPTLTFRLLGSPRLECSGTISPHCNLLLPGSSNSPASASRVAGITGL

IC50 [nM]	SMILES
< 100	O=C(Nc1cn2cc(-c3c(Cl)c(F)c(Cn4ncnn4)c4[nH]ncc34)ccc2n1)[C@@H]1C[C@@H]1F [Example 379, (1S,2S)-N-(6-(7-((2H-tetrazol-2-yl)methyl)-5-chloro-6-fluoro-1H-indazol-4-yl)imidazo[1,2-a]pyridin-2-yl)-2-fluorocyclopropane-1-carboxamide]
< 100	O=C(Nc1cn2cc(-c3c(Cl)c(F)c(CN4CCC4)c4[nH]ncc34)ccc2n1)[C@@H]1C[C@@H]1F [Example 380, (1S,2S)-N-(6-(7-(azetidin-1-ylmethyl)-5-chloro-6-fluoro-1H-indazol-4-yl)imidazo[1,2-a]pyridin-2-yl)-2-fluorocyclopropane-1-carboxamide]
101 to 500	O=C(Nc1cn2cc(-c3c(Cl)c(F)c(CN4CCCCC4)c4[nH]ncc34)ccc2n1)[C@@H]1C[C@@H]1F [Example 382, (1S,2S)-N-(6-(5-chloro-6-fluoro-7-(piperidin-1-ylmethyl)-1H-indazol-4-yl)imidazo[1,2-a]pyridin-2-yl)-2-fluorocyclopropane-1-carboxamide]
< 100	O=C(Nc1cn2cc(-c3c(Cl)c(F)c(Cn4nccn4)c4[nH]ncc34)ccc2n1)[C@@H]1C[C@@H]1F [Example 383, (1S,2S)-N-(6-(7-((2H-1,2,3-triazol-2-yl)methyl)-5-chloro-6-fluoro-1H-indazol-4-yl)imidazo[1,2-a]pyridin-2-yl)-2-fluorocyclopropane-1-carboxamide]
< 100	O=C(Nc1cn2cc(-c3c(Cl)c(F)c(Cn4ccnn4)c4[nH]ncc34)ccc2n1)[C@@H]1C[C@@H]1F [Example 384, (1S,2S)-N-(6-(7-((1H-1,2,3-triazol-1-yl)methyl)-5-chloro-6-fluoro-1H-indazol-4-yl)imidazo[1,2-a]pyridin-2-yl)-2-fluorocyclopropane-1-carboxamide]
< 100	O=C(Nc1cn2cc(-c3c(Cl)c(F)c(Cn4cncn4)c4[nH]ncc34)ccc2n1)[C@@H]1C[C@@H]1F [Example 385, (1S,2S)-N-(6-(7-((1H-1,2,4-triazol-1-yl)methyl)-5-chloro-6-fluoro-1H-indazol-4-yl)imidazo[1,2-a]pyridin-2-yl)-2-fluorocyclopropane-1-carboxamide]
< 100	CN(C)c1c(F)c(Cl)c(-c2ccc3nc(NC(=O)NC4CC4)cn3c2)c2cn[nH]c12 [Example 387, 1-(6-(5-chloro-7-(dimethylamino)-6-fluoro-1H-indazol-4-yl)imidazo[1,2-a]pyridin-2-yl)-3-cyclopropylurea]
< 100	Cc1cccn1-c1c(F)c(Cl)c(-c2ccc3nc(NC(=O)[C@@H]4C[C@@H]4F)cn3c2)c2cn[nH]c12 [Example 388, (1S,2S)-N-(6-(5-chloro-6-fluoro-7-(2-methyl-1H-pyrrol-1-yl)-1H-indazol-4-yl)imidazo[1,2-a]pyridin-2-yl)-2-fluorocyclopropane-1-carboxamide]
< 100	CC(C)(O)c1c(F)c(Cl)c(-c2ccc3nc(NC(=O)[C@@H]4C[C@@H]4F)cn3c2)c2cn[nH]c12 [Example 389, (1S,2S)-N-(6-(5-chloro-6-fluoro-7-(2-hydroxypropan-2-yl)-1H-indazol-4-yl)imidazo[1,2-a]pyridin-2-yl)-2-fluorocyclopropane-1-carboxamide]
< 100	COCc1c(F)c(Cl)c(-c2ccc3nc(NC(=O)[C@@H]4C[C@@H]4F)cn3c2)c2cn[nH]c12 [Example 390, (1S,2S)-N-(6-(5-chloro-6-fluoro-7-(methoxymethyl)-1H-indazol-4-yl)imidazo[1,2-a]pyridin-2-yl)-2-fluorocyclopropane-1-carboxamide]
< 100	CCOCc1c(F)c(Cl)c(-c2ccc3nc(NC(=O)[C@@H]4C[C@@H]4F)cn3c2)c2cn[nH]c12 [Example 391, (1S,2S)-N-(6-(5-chloro-7-(ethoxymethyl)-6-fluoro-1H-indazol-4-yl)imidazo[1,2-a]pyridin-2-yl)-2-fluorocyclopropane-1-carboxamide]
< 100	O=C(Nc1cn2cc(-c3c(Cl)c(F)c(Cn4cnnn4)c4[nH]ncc34)ccc2n1)[C@@H]1C[C@@H]1F [Example 392, (1S,2S)-N-(6-(7-((1-tetrazol-1-yl)methyl)-5-chloro-6-fluoro-1H-indazol-4-yl)imidazo[1,2-a]pyridin-2-yl)-2-fluorocyclopropane-1-carboxamide]
< 100	COC(C)(C)c1c(F)c(Cl)c(-c2ccc3nc(NC(=O)[C@@H]4C[C@@H]4F)cn3c2)c2cn[nH]c12 [Example 395, (1S,2S)-N-(6-(5-chloro-6-fluoro-7-(2-methoxypropan-2-yl)-1H-indazol-4-yl)imidazo[1,2-a]pyridin-2-yl)-2-fluorocyclopropane-1-carboxamide]
< 100	CC(c1c(F)c(Cl)c(-c2ccc3nc(NC(=O)[C@@H]4C[C@@H]4F)cn3c2)c2cn[nH]c12)N(C)C (stereo partly drawn) [Example 396, (1S,2S)-N-(6-(5-chloro-7-(1-(dimethylamino)ethyl)-6-fluoro-1H-indazol-4-yl)imidazo[1,2-a]pyridin-2-yl)-2-fluorocyclopropane-1-carboxamide. Formaic acid salt]
< 100	CN(C)C(=O)CNc1c(F)c(Cl)c(-c2ccc3nc(NC(=O)[C@@H]4C[C@@H]4F)cn3c2)c2cn[nH]c12 [Example 397, (1S,2S)-N-(6-(5-chloro-7-((2-(dimethylamino)-2-oxoethyl)amino)-6-fluoro-1H-indazol-4-yl)imidazo[1,2-a]pyridin-2-yl)-2-fluorocyclopropane-1-carboxamide]
< 100	CC(c1c(F)c(Cl)c(-c2ccc3nc(NC(=O)[C@@H]4C[C@@H]4F)cn3c2)c2cn[nH]c12)n1cnnn1 (stereo partly drawn) [Example 398, (1S,2S)-N-(6-(7-(1-(1H-tetrazol-1-yl)ethyl)-5-chloro-6-fluoro-1H-indazol-4-yl)imidazo[1,2-a]pyridin-2-yl)-2-fluorocyclopropane-1-carboxamide]
< 100	CC(N)c1c(F)c(Cl)c(-c2ccc3nc(NC(=O)[C@@H]4C[C@@H]4F)cn3c2)c2cn[nH]c12 (stereo partly drawn) [Example 399, (1S,2S)-N-(6-(7-(1-aminoethyl)-5-chloro-6-fluoro-1H-indazol-4-yl)imidazo[1,2-a]pyridin-2-yl)-2-fluorocyclopropane-1-carboxamide]
< 100	CN(C)C(=O)c1ccn(-c2c(F)c(Cl)c(-c3ccc4nc(NC(=O)[C@@H]5C[C@@H]5F)cn4c3)c3cn[nH]c23)c1 [Example 400, 1-(5-chloro-6-fluoro-4-(2-((1S,2S)-2-fluorocyclopropane-1-carboxamido)imidazo[1,2-a]pyridin-6-yl)-1H-indazol-7-yl)-N,N-dimethyl-1H-pyrrole-3-carboxamide]
< 100	O=C(Nc1cn2cc(-c3c(Cl)c(F)c(OC4CC4)c4[nH]ncc34)ccc2n1)[C@@H]1C[C@@H]1F [Example 401, (1S,2S)-N-(6-(5-chloro-7-cyclopropoxy-6-fluoro-1H-indazol-4-yl)imidazo[1,2-a]pyridin-2-yl)-2-fluorocyclopropane-1-carboxamide]
101 to 500	CNC(C)c1c(F)c(Cl)c(-c2ccc3nc(NC(=O)[C@@H]4C[C@@H]4F)cn3c2)c2cn[nH]c12 (stereo partly drawn) [Example 402, (1S,2S)-N-(6-(5-chloro-6-fluoro-7-(1-(methylamino)ethyl)-1H-indazol-4-yl)imidazo[1,2-a]pyridin-2-yl)-2-fluorocyclopropane-1-carboxamide]
